Measured values taken from ChEMBL document CHEMBL1177653, “Synthesis and antiplasmodial activity of lycorine derivatives” (Bioorg Med Chem, 2010).

What follows are compounds tested on Plasmodium falciparum (assay: Antiplasmodial activity against Plasmodium falciparum F32-Tanzania after 48 hrs).

| IC50 [µM] | Structure (SMILES) |
| --- | --- |
| > 100 | C=Cc1cccc2c3cc4c(cc3c(=O)n(CC)c12)OCO4 |
| 47 | C=Cc1cccc2c1N(C)Cc1cc(OC(=O)CCCCCCCCCCC)c(OC(=O)CCCCCCCCCCC)cc1-2 |
| 8.4 | CC(=O)Oc1cc2c(cc1OC(C)=O)[C@@H]1[C@H](O)[C@@H](OC(C)=O)C=C3CCN(C2)[C@H]31 |
| > 100 | CC(=O)O[C@H]1[C@H]2c3cc4c(cc3C(=O)N3CCC(=C[C@@H]1OC(C)=O)[C@H]23)OCO4 |
| 0.9 | C=Cc1cccc2c1N(C)Cc1cc(OC(C)=O)c(OC(C)=O)cc1-2 |
| 12.4 | C=Cc1cccc2c1N(C)Cc1cc(OC)c(OC)cc1-2 |
| 9.2 | CC(=O)Oc1cc2c3c(c1)c1cc4c(cc1c(=O)n3CC2)OCO4 |
| 0.8 | C=Cc1cccc2c1N(CCCC)Cc1cc(OC(C)=O)c(OC(C)=O)cc1-2 |
| > 100 | CC(=O)O[C@@H]1[C@@H](OC(C)=O)[C@H](O)[C@@]2(O)CCN3C(=O)c4cc5c(cc4[C@H]1[C@H]32)OCO5 |
| > 100 | CC(=O)O[C@H]1[C@H]2c3cc4c(cc3C(=O)N3CCC(=C[C@@H]1O)[C@H]23)OCO4 |
| > 100 | C=Cc1cccc2c3cc4c(cc3c(=O)n(CCCC)c12)OCO4 |
| 0.6 | CCC(C)C(=O)O[C@H]1[C@H]2c3cc4c(cc3CN3CCC(=C[C@@H]1OC(=O)C(C)CC)[C@H]23)OCO4 (some centres not stated) |
| 7.4 | C=Cc1cccc2c1N(CCCCCCCCCCC)Cc1cc3c(cc1-2)OCO3 |
| 1.1 | C=Cc1cccc2c1N(C)Cc1cc(O)c(O)cc1-2 |
| > 100 | C=Cc1cccc2c1N(CCCC)Cc1cc(O)c(O)cc1-2 |
| > 100 | C=Cc1cccc2c3cc4c(cc3c(=O)n(C)c12)OCO4 |
| 9.7 | C=Cc1cccc2c1N(CCCC)Cc1cc3c(cc1-2)OCO3 |
| > 100 | CCc1cccc2c1N(C)Cc1cc3c(cc1-2)OCO3 |
| 11.3 | C=Cc1cccc2c1N(C)Cc1cc3c(cc1-2)OCO3 |
| 7.4 | CCCCN1Cc2cc3c(cc2-c2cccc(CC)c21)OCO3 |
| 0.9 | CC(=O)O[C@H]1[C@H]2c3cc4c(cc3CN3CCC(=C[C@@H]1O)[C@H]23)OCO4 |
| 86 | C=Cc1cccc2c1N(CC)Cc1cc3c(cc1-2)OCO3 |
| 0.26 | CC(=O)O[C@H]1[C@H]2c3cc4c(cc3CN3CCC(=C[C@@H]1OC(C)=O)[C@H]23)OCO4 |
| 2.7 | CCC(=O)O[C@H]1[C@H]2c3cc4c(cc3CN3CCC(=C[C@@H]1OC(=O)CC)[C@H]23)OCO4 |
| 34.8 | CC(=O)O[C@H]1[C@H]2c3cc4c(cc3CN3CC[C@@H](C[C@@H]1OC(C)=O)[C@H]23)OCO4 |
| 14.7 | O=C1C=C2CCN3Cc4cc5c(cc4[C@H]([C@@H]1O)[C@@H]23)OCO5 |

| Structure (SMILES) | IC50 [µM] |
| --- | --- |
| O[C@H]1[C@H]2c3cc4c(cc3CN3CCC(=C[C@@H]1O)[C@H]23)OCO4 [LYCORINE] | 0.13 |
